In ChEMBL document CHEMBL1133756, “A potent aldose reductase inhibitor, (2S,4S)-6-fluoro-2', 5'-dioxospiro[chroman-4,4'-imidazolidine]-2-carboxamide (Fidarestat): its absolute configuration and interactions with the aldose reductase by X-ray crystallography” (J Med Chem, 2000):

Experiments:
[1] = molecular target: Aldo-keto reductase family 1 member B1 (Rattus norvegicus, UniProt P07943); experiment: Tested for in vitro inhibition activity against rat Aldose reductase (AR)
[2] = molecular target: T1, Aldo-keto reductase family 1 member A1 (Homo sapiens, UniProt P14550); experiment: Tested for in vitro inhibition activity against human aldehyde reductase (AHR)
T1 sequence (P14550 whole entry): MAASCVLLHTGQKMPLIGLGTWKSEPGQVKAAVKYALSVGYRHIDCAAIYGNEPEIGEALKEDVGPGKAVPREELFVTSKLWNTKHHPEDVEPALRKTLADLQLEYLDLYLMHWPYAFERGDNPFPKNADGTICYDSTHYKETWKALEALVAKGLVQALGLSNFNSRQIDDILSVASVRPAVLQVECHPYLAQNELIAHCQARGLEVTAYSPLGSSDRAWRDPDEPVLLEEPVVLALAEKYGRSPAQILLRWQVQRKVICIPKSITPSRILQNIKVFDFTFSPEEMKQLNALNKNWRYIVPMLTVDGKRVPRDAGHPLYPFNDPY

[3] = molecular target: Aldo-keto reductase family 1 member B1 (Homo sapiens, UniProt P15121); experiment: Tested for in vitro inhibition activity against human Aldose reductase (human AR)

## NC(=O)[C@H]1C[C@]2(NC(=O)NC2=O)c2cc(F)ccc2O1
[1]
  IC50: 570 nM

## NC(=O)[C@@H]1C[C@]2(NC(=O)NC2=O)c2cc(F)ccc2O1
[2]
  IC50: 1200 nM
[3]
  IC50: 9 nM
[1]
  IC50: 35 nM
